What was measured:
TMD8-BTK(C481S) cells = assay: Inhibitory activity on TMD8-BTK(C481S) cell proliferation (CCK-8); format: cell-based; settings: 72 h, 72 h incubation
Outline: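 Cells seeded at 8×10^4 cells/mL, incubated overnight, then treated in duplicate with compounds at 5000 nM-0.31 nM for 72 h. Viability by CCK-8 (4 h, absorbance 450 nm); IC50 from four-parameter dose-response fits.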

BTK(C481S) kinase = BTK(C481S) kinase (Homo sapiens (Human), UniProt Q06187, C481S); assay: Inhibitory activity on BTK(C481S) kinase; format: biochemical; settings: ATP 10 μM
Chain of BTK(C481S) kinase (Q06187 whole entry C481S): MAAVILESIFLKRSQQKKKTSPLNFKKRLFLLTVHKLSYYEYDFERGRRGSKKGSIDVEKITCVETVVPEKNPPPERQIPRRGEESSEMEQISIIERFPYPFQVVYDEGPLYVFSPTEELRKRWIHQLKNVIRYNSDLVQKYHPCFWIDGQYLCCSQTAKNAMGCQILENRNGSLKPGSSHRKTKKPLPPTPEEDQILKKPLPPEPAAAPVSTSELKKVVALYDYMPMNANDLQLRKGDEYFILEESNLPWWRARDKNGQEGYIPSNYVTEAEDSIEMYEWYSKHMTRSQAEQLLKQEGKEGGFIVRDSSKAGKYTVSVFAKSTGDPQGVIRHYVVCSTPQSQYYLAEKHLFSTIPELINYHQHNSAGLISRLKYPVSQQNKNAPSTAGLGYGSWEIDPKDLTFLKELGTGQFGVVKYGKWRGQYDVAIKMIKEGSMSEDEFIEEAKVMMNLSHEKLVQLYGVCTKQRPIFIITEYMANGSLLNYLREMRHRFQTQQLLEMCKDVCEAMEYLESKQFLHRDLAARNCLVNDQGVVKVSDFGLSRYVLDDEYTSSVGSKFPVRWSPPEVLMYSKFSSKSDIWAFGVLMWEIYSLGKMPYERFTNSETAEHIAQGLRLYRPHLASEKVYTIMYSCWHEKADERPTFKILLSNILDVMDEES
Experimental: The Assay Buffer was prepared, and the composition of the Assay Buffer was 50 mM Hepes (Gibco, 15630), 10 mM MgCl2, 2 mM DTT, 1 mM EGTA, and 0.010% Tween 20. BTK(C481S) kinase (Carna Biosciences, 08-547), ATP (Sigma, A7699), and ULight-poly GT (PE, TRF0100-M) working solutions were prepared using the Assay Buffer. EDTA and Eu-labeled anti-phosphotyrosine (PT66) antibody (PE, AD0069) working solutions were prepared using the Detection Buffer. 6 μL of BTK(C481S) kinase at the corresponding concentration (final concentration: 0.005 ng/μL) was added to the compound groups and the control group, while 6 μL of the Assay Buffer was added to the blank group, and then the compounds (with the concentration set to 1000 nM at the maximum, 4-fold dilution, 7 concentration gradients) were added using a nanoliter pipettor. The mixture was incubated at room temperature for 30 min, and then 4 μL of the mixture of ATP (final concentration: 10 μM) and ULight-poly GT (final concentration: 100 nM) was added. After incubation at room temperature for 2 h, 5 μL of EDTA (final concentration: 10 mM) was added to stop the reaction, and finally 5 μL of antibody (final concentration: 2 nM) was added. After incubation at room temperature for 1 h, signal values were detected at 665/615 nM, the four-parameter analysis was performed, the dose-response curves were fit, and IC50 was calculated.

TMD-8 xenograft tumors = assay: In vivo drug efficacy, TMD-8 mouse subcutaneous xenograft tumors; design: species or system NOD-SCID mice; settings: 30 mg/kg, qd, i.g.
Experimental: TMD-8 mouse subcutaneous xenograft tumors: TMD-8 (WT) cells at a concentration of 1×10^8/mL were inoculated under aseptic conditions into the right side armpit of NOD-SCID mice at 0.1 mL/mouse. After subcutaneous grafting, the animals were divided into groups with 6 animals in each group when the tumor volume reached about 188 mm^3 (or 200 mm^3):
model group: vehicle, 6 mice; compound administration groups: 30 mg/kg, qd, i.g., 6 mice.
The vehicle or the test compound was intragastrically given at a volume of 4 mL/kg, once daily for 16 consecutive days. The tumor volume was measured 2-3 times a week, and meanwhile, the mice were weighed and the data were recorded; the general behaviors of the animals were observed every day. After all dosing was complete, the animals were sacrificed on day 17, and the tumors were removed and weighed.
The tumor volume and the tumor growth inhibition were calculated using the following formulae:
Tumor volume (TV)=(Length×Width^2)/2.
Tumor growth inhibition (TGI)=(1−tumor weight of treatment group/tumor weight of model group)×100%.

[1] = In vitro liver microsomal stability, mouse; settings: 0.5 mg/mL microsomes, NADPH, 37° C., 1 h
Experimental: (§1) Liver microsome incubation samples were prepared by mixing a PBS buffer (pH 7.4), a liver microsome solution (0.5 mg/mL), a test compound, and an NADPH+MgCl2 solution and incubated at 37° C. and 300 rpm for 1 h. Zero-hour samples were prepared by mixing a PBS buffer (pH 7.4), a liver microsome solution (0.5 mg/mL), and a test compound. An acetonitrile solution containing an internal standard was added to the samples, and supernatants were prepared by protein precipitation, diluted, and then assayed by LC/MS/MS.

[2] = test system: OCI-LY10-BTK(C481S) cells; assay: Inhibitory activity on OCI-LY10-BTK(C481S) cell proliferation (CCK-8); format: cell-based; settings: 72 h incubation, IC50 per method, unit inferred
Outline: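 Logarithmic-phase OCI-LY10 BTK(C481S) cells at 5×10^4 cells/mL were treated in duplicate with compounds at final 5000 nM-0.31 nM for 72 h. CCK-8 was added for 3 h and absorbance read at 450 nm. IC50 came from four-parameter dose-response fits.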

[3] = In vitro liver microsomal stability, human; format: in vitro ADME; settings: 0.5 mg/mL microsomes, NADPH, 37° C., 1 h
Experimental: as §1

SMILES | IC50 (TMD8-BTK(C481S) cells) | IC50 (BTK(C481S) kinase) | TGI d 17 (TMD-8 xenograft tumors; 16 days, tumor weight on day 17) | TV on d 0 Mean ± SD (TMD-8 xenograft tumors; day 0 (baseline at grouping)) | TV on d 12 Mean ± SD (TMD-8 xenograft tumors; day 12) | TV on d 15 Mean ± SD (TMD-8 xenograft tumors; day 15) | Mouse liver microsome Residuals at 60 min [1] | IC50 ([2]; 72 h) | Human liver microsome Residuals at 60 min [3] | IC50 [2]
CN1CCN([C@@H]2CCCN(c3cnc(C(N)=O)c(Nc4ccc(C5CCN(C6CN(c7ccc8c(C9CCC(=O)NC9=O)noc8c7)C6)CC5)cc4)n3)C2)C1=O (some centres unmarked) [Compound 10] | 2.4 nM | 19.6 nM | 97.5% | 226 ± 29 mm^3 | 235 ± 57 mm^3 | 209 ± 60 mm^3 | 65.4% | – | – | –
CN1CCN([C@@H]2CCCN(c3cnc(C(N)=O)c(Nc4ccc(N5CCC(CN6CCc7ccc8c(C9CCC(=O)NC9=O)noc8c7CC6)CC5)cc4)n3)C2)C1=O (some centres unmarked) [Compound 27] | – | 9 nM | – | – | – | – | – | 0.062 nM | 56.0% | –
CN1CCN([C@@H]2CCCN(c3cnc(C(N)=O)c(Nc4ccc(C5CCC(N6Cc7ccc8c(C9CCC(=O)NC9=O)noc8c7C6)CC5)cc4)n3)C2)C1=O (some centres unmarked) [Compound 33] | – | 22 nM | – | – | – | – | 71.0% | – | 55.0% | 0.37 nM

Reference: patent US20250152719A1, “FUSED IMIDE DERIVATIVE” (Chia Tai Tianqing Pharmaceutical Group Co., Ltd., priority 2021, published 2025)
